Molecular target: human wild type-CFTR (Homo sapiens, UniProt P13569)
Assay: Cell-based YFP assay
Parameters: expressed in transfected cells; host or cells: CHO-K1 (Chinese hamster ovary)
Settings: CHO-K1 cells expressing human wild type-CFTR and YFP-H148Q/I152L; forskolin 20 μM = 100% activity; read-out: Cell-based YFP Assay (EC50) Concentration Range
Outline: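 CHO-K1 cells co-expressing human wild-type CFTR and YFP-H148Q/I152L halide sensor, grown 48 h at 37 °C, then in PBS. YFP quenching by I⁻ influx read at 37 °C after adding 140 mM I⁻ solution, sampled every 0.4 s for 14 s. Triplicates averaged; EC50 fitted.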

Sequence of human wild type-CFTR (P13569 whole entry): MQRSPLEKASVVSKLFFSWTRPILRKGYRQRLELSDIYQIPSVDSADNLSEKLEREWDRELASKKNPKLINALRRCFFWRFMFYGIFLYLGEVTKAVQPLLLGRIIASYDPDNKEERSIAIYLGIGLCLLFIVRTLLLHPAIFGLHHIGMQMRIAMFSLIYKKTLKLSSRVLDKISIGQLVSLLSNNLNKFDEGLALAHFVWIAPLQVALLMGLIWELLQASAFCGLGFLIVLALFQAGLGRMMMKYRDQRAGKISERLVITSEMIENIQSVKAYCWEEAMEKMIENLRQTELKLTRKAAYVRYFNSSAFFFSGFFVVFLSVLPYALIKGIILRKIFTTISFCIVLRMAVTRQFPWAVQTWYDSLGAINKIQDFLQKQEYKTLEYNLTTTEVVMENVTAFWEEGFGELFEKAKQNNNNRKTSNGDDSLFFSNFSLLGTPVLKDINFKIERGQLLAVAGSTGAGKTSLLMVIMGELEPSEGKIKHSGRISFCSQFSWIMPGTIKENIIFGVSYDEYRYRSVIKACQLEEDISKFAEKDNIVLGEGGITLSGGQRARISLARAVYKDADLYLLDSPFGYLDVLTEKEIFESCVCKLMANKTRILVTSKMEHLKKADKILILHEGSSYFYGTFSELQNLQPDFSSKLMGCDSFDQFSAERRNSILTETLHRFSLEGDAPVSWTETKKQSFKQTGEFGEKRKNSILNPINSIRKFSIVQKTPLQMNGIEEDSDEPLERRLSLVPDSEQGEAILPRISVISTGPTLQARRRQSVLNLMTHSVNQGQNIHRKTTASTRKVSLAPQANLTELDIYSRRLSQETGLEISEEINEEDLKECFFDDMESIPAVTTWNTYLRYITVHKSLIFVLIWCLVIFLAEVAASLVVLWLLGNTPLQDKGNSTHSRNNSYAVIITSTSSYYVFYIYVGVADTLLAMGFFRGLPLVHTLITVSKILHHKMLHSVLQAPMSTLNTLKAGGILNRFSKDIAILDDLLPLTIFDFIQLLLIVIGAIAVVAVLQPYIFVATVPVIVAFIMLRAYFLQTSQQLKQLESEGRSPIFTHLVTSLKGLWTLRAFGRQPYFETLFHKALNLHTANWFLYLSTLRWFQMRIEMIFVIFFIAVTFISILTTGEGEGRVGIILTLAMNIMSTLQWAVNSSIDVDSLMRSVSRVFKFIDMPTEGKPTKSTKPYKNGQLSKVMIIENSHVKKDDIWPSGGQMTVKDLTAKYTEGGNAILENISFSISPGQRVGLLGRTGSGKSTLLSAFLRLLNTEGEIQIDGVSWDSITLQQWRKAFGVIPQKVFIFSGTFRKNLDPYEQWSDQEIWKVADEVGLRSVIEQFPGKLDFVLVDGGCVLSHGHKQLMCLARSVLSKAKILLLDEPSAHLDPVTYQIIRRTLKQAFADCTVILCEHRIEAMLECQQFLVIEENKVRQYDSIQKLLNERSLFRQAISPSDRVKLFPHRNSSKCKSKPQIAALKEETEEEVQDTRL

Row | Compound | EC50
1 | COc1ccc(-c2ccnc3cc(C(=O)N4CCN(c5ccccc5)CC4)nn23)cc1OC [Compound 152, (7-(3,4-dimethoxyphenyl)pyrazolo[1,5-a]pyrimidin-2-yl)(4-phenylpiperazin-1-yl)methanone] | 0.2 to 2 µM
2 | COc1ccc(-c2ccnc3cc(C(=O)N4C[C@H](C)N[C@@H](C)C4)nn23)cc1OC [Compound 359, (7-(3,4-dimethoxyphenyl)pyrazolo[1,5-a]pyrimidin-2-yl) ((3S,5S)-3,5-dimethylpiperazin-1-yl)methanone] | 0.2 to 2 µM
3 | COc1ccc(-c2ccnc3cc(C(=O)N4CCOCC4)nn23)cc1OC [Compound 61, (7-(3,4-dimethoxyphenyl)pyrazolo[1,5-a]pyrimidine-2-yl) (morpholino)methanone] | ≥ 2 µM
4 | COc1ccc(-c2ccnc3cc(C(=O)NCc4ccc(N5CCN(C)CC5)cc4)nn23)cc1OC [Compound 245, 7-(3,4-dimethoxyphenyl)-N-(4-(4-methylpiperazin-1-yl)benzyl)pyrazolo[1,5-a]pyrimidine-2-carboxamide] | ≥ 2 µM
5 | COc1ccc(-c2ccnc3cc(C(=O)N4CC[C@@H](O)C4)nn23)cc1OC [Compound 150, (R)-(7-(3,4-dimethoxyphenyl)pyrazolo[1,5-a]pyrimidin-2-yl)(3-hydroxypyrrolidin-1-yl)methanone] | ≥ 2 µM
6 | COc1ccc(-c2ccnc3cc(C(=O)Nc4ccc(C(=O)NCCCN5CCOCC5)cc4)nn23)cc1OC [Compound 173, 7-(3,4-dimethoxyphenyl)-N-(4-((3-morpholinopropyl)carbamoyl)phenyl)pyrazolo [1,5-a]pyrimidine-2-carboxamide] | < 0.2 µM
7 | COc1ccc(-c2ccnc3cc(C(=O)N4CCN(C(=O)OC(C)(C)C)[C@@H](C)C4)nn23)cc1OC [Compound 112, tert-butyl (S)-4-(7-(3,4-dimethoxyphenyl)pyrazolo[1,5-a]pyrimidine-2-carbonyl)-2-methylpiperazine-1-carboxylate] | < 0.2 µM
8 | COc1ccc(-c2ccnc3cc(C(=O)Nc4ccc(N5CCN(C)CC5)cc4)nn23)cc1OC [Compound 193, 7-(3,4-dimethoxyphenyl)-N-(4-(4-methylpiperazin-1-yl)phenyl)pyrazolo[1,5-a]pyrimidine-2-carboxamide] | < 0.2 µM
9 | COc1ccc(-c2ccnc3cc(C(=O)Nc4ccc(OC(=O)[C@@H](N)C(C)C)cc4)nn23)cc1OC [Compound 172, 4-(7-(3,4-dimethoxyphenyl)pyrazolo[1,5-a]pyrimidine-2-carboxamido) phenyl L-valinate] | < 0.2 µM
10 | COc1ccc(-c2ccnc3cc(C(=O)N4CCN[C@H](C)C4)nn23)cc1OC [Compound 322, (R)-(7-(3,4-dimethoxyphenyl)pyrazolo[1,5-a]pyrimidin-2-yl)(3-methylpiperazin-1-yl)methanone] | ≥ 2 µM
11 | COc1ccc(-c2ccnc3cc(C(=O)N4CCC(=O)C4)nn23)cc1OC [Compound 117, 1-(7-(3,4-dimethoxyphenyl)pyrazolo[1,5-a]pyrimidine-2-carbonyl) pyrrolidin-3-one] | ≥ 2 µM
12 | COc1ccc(-c2ccnc3cc(C(=O)N4CC(C)N(C(=O)c5ccccc5)C(C)C4)nn23)cc1OC (stereo not shown) [Compound 348, (4-benzoyl-3,5-dimethylpiperazin-1-yl) (7-(3,4-dimethoxyphenyl)pyrazolo [1,5-a]pyrimidine-2-yl)methanone] | 0.2 to 2 µM
13 | COc1ccc(-c2ccnc3cc(C(=O)Nc4ccc(C(=O)N5CCOCC5)c(C)c4)nn23)cc1OC [Compound 214, 7-(3,4-dimethoxyphenyl)-N-(3-methyl-4-(morpholine-4-carbonyl)phenyl)pyrazolo[1,5-a]pyrimidine-2-carboxamide] | ≥ 2 µM
14 | COc1ccc(-c2ccnc3cc(C(=O)NC(=Cc4ccccc4)C(=O)O)nn23)cc1OC [Compound 108, 2-(7-(3,4-dimethoxyphenyl)pyrazolo[1,5-a]pyrimidine-2-carboxamido)-3-phenylacrylic acid] | ≥ 2 µM
15 | COc1ccc(-c2ccnc3cc(C(=O)Nc4ccc(N5CCOCC5)cc4F)nn23)cc1OC [Compound 311, 7-(3,4-dimethoxyphenyl)-N-(2-fluoro-4-morpholinophenyl) pyrazolo[1,5-a]pyrimidine-2-carboxamide] | < 0.2 µM
16 | CCOc1ccc(NC(=O)c2cc3nccc(-c4ccc(Cl)cc4F)n3n2)cc1 [Compound 304, 7-(4-chloro-2-fluorophenyl)-N-(4-ethoxyphenyl)pyrazolo [1,5-a]pyrimidine-2-carboxamide] | ≥ 2 µM
17 | COc1ccc(-c2ccnc3cc(C(=O)N4CCc5ccc(C(=O)N6CCOCC6)cc54)nn23)cc1OC [Compound 253, (7-(3,4-dimethoxyphenyl)pyrazolo[1,5-a]pyrimidin-2-yl)(6-(morpholine-4-carbonyl)indolin-1-yl) methanone] | 0.2 to 2 µM

Row | Compound | EC50
18 | COc1ccc(-c2ccnc3cc(C(=O)N4CCN[C@@H](C(C)C)C4)nn23)cc1OC [Compound 372, (S)-(7-(3,4-dimethoxyphenyl)pyrazolo[1,5-a]pyrimidin-2-yl)(3-isopropylpiperazin-1-yl)methanone] | 0.2 to 2 µM
19 | COc1ccc(-c2ccnc3cc(C(=O)N4CCc5ccc(C(=O)O)cc5C4)nn23)cc1OC [Compound 155, 2-(7-(3,4-dimethoxyphenyl)pyrazolo[1,5-a]pyrimidine-2-carbonyl)-1,2,3,4-tetrahydroisoquinoline-7-carboxylic acid] | ≥ 2 µM
20 | COc1ccc(-c2ccnc3cc(C(=O)Nc4ccc(CO)cc4)nn23)cc1OC [Compound 292, 7-(3,4-dimethoxyphenyl)-N-(4-(hydroxymethyl)phenyl) pyrazolo[1,5-a]pyrimidine-2-carboxamide] | < 0.2 µM
21 | COc1ccc(-c2ccnc3cc(C(=O)Nc4ccc(C(=O)NCCN(C)C)cc4)nn23)cc1OC [Compound 118, 7-(3,4-dimethoxyphenyl)-N-(4-((2-(dimethylamino)ethyl)carbamoyl)phenyl) pyrazolo[1,5-a]pyrimidine-2-carboxamide] | ≥ 2 µM
22 | COc1ccc(-c2ccnc3cc(C(=O)NN4CCN(C)CC4)nn23)cc1OC [Compound 68, 7-(3,4-dimethoxyphenyl)-N-(4-methylpiperazin-1-yl) pyrazolo[1,5-a]pyrimidine-2-carboxamide] | ≥ 2 µM
23 | COc1ccc(-c2ccnc3cc(C(=O)Nc4ccc(C(=O)N5CCN(C)CC5)c(OC)c4)nn23)cc1OC [Compound 218, 7-(3,4-dimethoxyphenyl)-N-(3-methoxy-4-(4-methylpiperazine-1-carbonyl)phenyl)pyrazolo [1,5-a]pyrimidine-2-carboxamide] | ≥ 2 µM
24 | COc1ccc(-c2ccnc3cc(C(=O)Nc4ccc(C(=O)N5CCN(C)[C@@H](C)C5)cc4)nn23)cc1OC [Compound 195, (S)-7-(3,4-dimethoxyphenyl)-N-(4-(3,4-dimethylpiperazine-1-carbonyl)phenyl)pyrazolo [1,5-a]pyrimidine-2-carboxamide] | 0.2 to 2 µM
25 | COc1ccc(-c2ccnc3cc(C(=O)N4C[C@H](C)N(C(=O)c5ccccc5)C[C@@H]4C)nn23)cc1OC [Compound 366, ((2S,5S)-4-benzoyl-2,5-dimethylpiperazin-1-yl)(7-(3,4-dimethoxyphenyl)pyrazolo[1,5-a]pyrimidin-2-yl)methanone] | < 0.2 µM
26 | COc1ccc(-c2ccnc3cc(C(=O)N4CCN(C(=O)C5CC5)CC4)nn23)cc1OC [Compound 110, (4-(cyclopropanecarbonyl)piperazin-1-yl)(7-(3,4-dimethoxyphenyl)pyrazolo[1,5-a]pyrimidin-2-yl)methanone] | 0.2 to 2 µM
27 | COc1ccc(-c2ccnc3cc(C(=O)N[C@H]4CC[C@@H](C(N)=O)CC4)nn23)cc1OC [Compound 71, N-((1S,4S)-4-carbamoylcyclohexyl)-7-(3,4-dimethoxyphenyl)pyrazolo [1,5-a]pyrimidine-2-carboxamide] | ≥ 2 µM
28 | COc1ccc(-c2ccnc3cc(C(=O)N4CCc5ccc(C(=O)O)cc54)nn23)cc1OC [Compound 232, 1-(7-(3,4-dimethoxyphenyl)pyrazolo[1,5-a]pyrimidine-2-carbonyl) indoline-6-carboxylic acid] | ≥ 2 µM
29 | COc1ccc(-c2ccnc3cc(C(=O)Nc4ccc(C(=O)N[C@H](C)C(=O)O)cc4)nn23)cc1OC [Compound 89, (4-(7-(3,4-dimethoxyphenyl)pyrazolo[1,5-a]pyrimidine-2-carboxamido)benzoyl)-D-alanine] | ≥ 2 µM
30 | COc1ccc(-c2ccnc3cc(C(=O)N4CCCc5cc(C(=O)N6CCN(C)CC6)ccc54)nn23)cc1OC [Compound 235, (7-(3,4-dimethoxyphenyl)pyrazolo[1,5-a]pyrimidin-2-yl)(6-(4-methylpiperazine-1-carbonyl)-3,4-dihydroquinolin-1(2H)-yl)methanone] | ≥ 2 µM
31 | COc1ccc(-c2ccnc3cc(C(=O)N[C@H]4CC[C@H](C(=O)N5CCC(N6CCOCC6)CC5)CC4)nn23)cc1OC [Compound 341, 7-(3,4-dimethoxyphenyl)-N-((1R,4R)-4-(4-morpholinopiperidine-1-carbonyl)cyclohexyl) pyrazolo[1,5-a] pyrimidine-2-carboxamide] | ≥ 2 µM
32 | COc1ccc(-c2ccnc3cc(C(=O)NC4CCC(N(C)C)CC4)nn23)cc1OC (stereo not shown) [Compound 27, 7-(3,4-dimethoxyphenyl)-N-(4-(dimethylamino)cyclohexyl) pyrazolo[1,5-a]pyrimidine-2-carboxamide] | ≥ 2 µM
33 | COc1ccc(-c2ccnc3cc(C(=O)N4CCN(C(=O)c5cccc(F)c5)[C@@H](C)C4)nn23)cc1OC [Compound 263, (S)-(7-(3,4-dimethoxyphenyl)pyrazolo[1,5-a]pyrimidin-2-yl)(4-(3-fluorobenzoyl)-3-methylpiperazin-1-yl) methanone] | 0.2 to 2 µM
34 | COc1ccc(-c2ccnc3cc(C(=O)Nc4ccc(C(=O)N(C)CCN(C)C)cc4)nn23)cc1OC [Compound 219, 7-(3,4-dimethoxyphenyl)-N-(4-((2-(dimethylamino)ethyl) (methyl)carbamoyl)phenyl)pyrazolo[1,5-a] pyrimidine-2-carboxamide] | ≥ 2 µM

Reference: patent US20240199623A1 (ILDONG PHARMACEUTICAL CO., LTD., priority 2020, published 2024)
